# Source: patent EP1674457B1, “Derivatives of squaric acid with anti-proliferative activity” (GPC Biotech AG, priority 2004, dated 2006)
# Experiments:
# A2780 [1] = experiment: SRB assay, inhibition of tumor cell growth at 1 µM (Example 61); assay type: cell-based, Human; details: Homo sapiens, 48 hours
# Experimental: (§1) 3,000-15,000 cells/well were exposed to the test compounds at a concentration of 1 µM for 48 hours, and cytotoxicty was measured using the SRB assay according to Shekan et al (J Natl Cancer Inst (1990) 82, 1107-112). Briefly, cells were plated in 96 well dishes 24 hours prior to compound addition. The assay was terminated with the addition of cold TCA to a final concentration of 10% and the plates were incubated for one hour at 4°C. The plates were then washed 5 times with water and 100µl of a Sulforhodamine B solution (4%) was added to each well. The plate was then incubated for 10 minutes at room temperature before removal of unbound dye by washing with 1% acetic acid. The bound dye was solubilized with 10 mM Trizma base and the absorbance read at OD570. Inhibitory activity of the compounds was calculated as % inhibition compared to cells treated with the solvent (DMSO). Table 2 represents the growth inhibitory activity of certain compunds of the invention across a number of tumor cell lines.
# HCT-116 [2] = experiment: as above; assay type: cell-based; details: Homo sapiens, 48 hours
# Experimental: as §1
# A-549 [3] = experiment: as above; assay type: cell-based; details: Homo sapiens, A549, 48 hours
# Experimental: as §1
# PC-3 [4] = experiment: as above; assay type: cell-based; details: Homo sapiens, 48 hours
# Experimental: as §1
# SW-620 [5] = experiment: as above; assay type: cell-based; details: Homo sapiens, 48 hours
# Experimental: as §1
# HCT-116 [6] = experiment: IC50 determination by SRB assay (Example 62); assay type: cell-based; details: Homo sapiens, HCT-116; HCY-116
# Experimental: as §1
# (§2) The assay was performed similar to example 61. However, test compounds were added at various concentrations, such as from 0.001 to about 0.1 µM, from 0.1 to about 10 µM, or from 1 to about 10 µM, as the need may be, in order to estimate the IC50 values. IC50 values were determined by plotting the percentage inhibitory activity for each concentration, fitting a curve using appropriate software and estimating the concentration at which 50% inhibition of growth would occur.
# A-549 [7] = experiment: IC50 determination by SRB assay (Example 62); assay type: cell-based; details: Homo sapiens, A549
# Experimental: as §1, §2
# PC-3 [8] = experiment: IC50 determination by SRB assay (Example 62); assay type: cell-based; details: Homo sapiens
# Experimental: as §1, §2
# A2780 [9] = experiment: IC50 determination by SRB assay (Example 62); assay type: cell-based; details: Homo sapiens
# Experimental: as §1, §2
# MCF7 [10] = experiment: IC50 determination by SRB assay (Example 62); assay type: cell-based; details: Homo sapiens
# Experimental: as §1, §2
# MCF7 [11] = experiment: SRB assay, inhibition of tumor cell growth at 1 µM (Example 61); assay type: cell-based; details: Homo sapiens, 48 hours
# Experimental: as §1
# SW-620 [12] = experiment: IC50 determination by SRB assay (Example 62); assay type: cell-based; details: Homo sapiens
# Experimental: as §1, §2
SMILES,inhibition at 1 µM (A2780 [1]),inhibition at 1 µM (HCT-116 [2]),inhibition at 1 µM (A-549 [3]),inhibition at 1 µM (PC-3 [4]),inhibition at 1 µM (SW-620 [5]),IC50 (HCT-116 [6]),IC50 (A-549 [7]),IC50 (PC-3 [8]),IC50 (A2780 [9]),IC50 (MCF7 [10]),inhibition at 1 µM (MCF7 [11]),IC50 (SW-620 [12])
"O=c1c(NCCCCCCOc2ccc(OCCN3CCOCC3)cc2)c(Nc2ccncc2)c1=O [SQ-23, 3-[6-(4-(2-Morpholin-4-yl-ethoxy)-phenoxy)-hexylamino]-4-(pyridin-4-yl-amino)-cyclobut-3-ene-1,2-dione]",> 80%,> 80%,> 50%,> 50%,> 20%,< 20 nM,< 20 nM,< 20 nM,< 20 nM,< 500 nM,,
"O=c1c(NCCCCCCOc2ccc(OCCN3CCOCC3)cc2)c(Nc2cccnc2)c1=O [SQ-24, 3-[6-(4-(2-Morpholin-4-yl-ethoxy)-phenoxy)-hexylamino]-4-(pyridin-3-yl-amino)-cyclobut-3-ene-1,2-dione]",> 80%,> 80%,> 50%,> 50%,> 20%,< 20 nM,< 100 nM,< 100 nM,< 20 nM,,> 20%,< 2000 nM
